Values after ≈ are worked out from the molar mass of the structure shown. Like-named read-outs stand apart in the source and are kept apart here. Where only a bound is given, the exact number is not on record here.

The target of experiment [1] is ChDHFR-TS (Cryptosporidium hominis, UniProt Q27552). The experiment is described as follows: ChDHFR enzyme inhibition assay. Type of experiment: biochemical. The procedure:
(§1) Enzyme and inhibitor were allowed to incubate for 5 min before adding dihydrofolate to initiate the reaction. Enzyme assays were performed at least four times. IC50 values and their standard deviations were calculated in the presence of varying concentrations of inhibitor near the IC50 concentration.
Compounds were evaluated in spectrophotometric enzyme assays using ChDHFR-TS and hDHFR. Inhibition constants (IC50) were measured (see Table 4). […] The compound abbreviations in Table 4 refer to the following compounds: […]

The target of experiment [2] is hDHFR (Homo sapiens (Human), UniProt P00374). The experiment in a line: hDHFR enzyme inhibition assay. Type of experiment: biochemical. The following applies: Table 7; read-out: IC50 (hDHFR). How it is done: hDHFR: The gene for hDHFR was amplified using PCR from cDNA obtained from ATCC. The gene was inserted in a pET41 vector with a C-terminal histidine tag for affinity chromatography. The resulting construct was verified by sequencing. The hDHFR protein was expressed in E. coli and purified using a nickel affinity column.
as §1
Enzyme inhibition assays were performed by monitoring the rate of NADPH oxidation by the DHFR enzyme at an absorbance of 340 nm. Assays were performed in the presence of saturating concentrations of NADPH and initiated with dihydrofolate. All assays were completed at 25° C. in a buffer containing 20 mM TES pH 7.0, 50 mM KCl, 10 mM 2-mercaptoethanol, 0.5 mM EDTA and 1 mg/mL BSA. Inhibition was measured at least three times with inhibitor concentrations near the IC50 value and the average IC50 value is reported with a standard deviation.

Experiment [3] deals with C. glabrata. The experiment is described as follows: Antifungal assay (MIC, Alamar Blue). The class given is cell-based, Candida glabrata. The conditions noted are these: C. glabrata; for MIC (Cg): YM media. The procedure: Antifungal assays were performed using C. glabrata as a suspension in 50% glycerol at −78° C. For susceptibility testing, a streak of stock culture was made on SDA agar and grown at 30° C. for 48 h. One pure colony of the test organism was recovered from the plate, suspended in appropriate media and grown in a 5 mL shake flask culture. A sample of the shake flask culture was diluted to 1×10^5 cells/mL in media and added to 96-well test plates (100 μL per well) containing test compounds dispensed in DMSO (1 μL). Amphotericin and ketoconazole were used as controls. After an incubation period determined from the strain specific doubling time, Alamar Blue (10 μL) was added, allowed to incubate; each well was scored for dye reduction.
Several representative compounds were also evaluated in thymidine-depleted media. It has been shown that high levels of thymidine interfere with accurate susceptibility testing of antifolates. To compensate for this, antifolates are frequently evaluated in a controlled minimal media with a low thymidine concentration. […] In addition, the compounds were also evaluated for mammalian cell toxicity using MCF-10 and HepG2 cell lines. Cellular selectivity is reported as the IC50 value for the MCF-10 human cell line divided by the MIC value (μg/mL) (Table 8).
(The colour change of resazurin is a common sign of viable cells or microbes.)

Experiment [4] has as its target CgDHFR (Candida glabrata (strain ATCC 2001 / BCRC 20586 / JCM 3761 / NBRC 0622 / NRRL Y-65 / CBS 138) (Yeast) (Nakaseomyces glabratus), UniProt Q6FPH0). The experiment is described as follows: biochemical. The conditions noted are these: for Selectivity: Table 7, hDHFR vs CgDHFR.
Text: CgDHFR: The gene coding CgDHFR was amplified by PCR from C. glabrata genomic DNA obtained from ATCC. The gene was inserted in a pET41 vector that includes a C-terminal histidine tag for nickel affinity chromatography. E. coli cells were transformed and the resulting plasmid was verified by sequencing. The protein was expressed in E. coli BL21(DE3) cells with isopropyl β-D-thiogalactoside induction. Following growth, the cells were lysed with BugBuster (Novagen) and centrifuged; the supernatant was loaded on a Ni-NTA column. The column was washed with 20 mM Tris (pH 8.0)/0.4 M NaCl and the protein was eluted using a gradient of 20 mM Tris (pH 8.0), 0.3 M NaCl, 20% glycerol, 0.1 mM EDTA, 2 mM DTT, 250 mM imidazole. Fractions containing CgDHFR were identified by SDS-PAGE, combined and desalted using a PD-10 column with a buffer containing 20 mM Tris pH 8.0, 20% glycerol, 0.1 mM EDTA and 2 mM DTT. The protein was concentrated to 13 mg/mL.
as §1

[5] abbreviates: Table 4, read-out: IC50 (ChDHFR).
[6] abbreviates: Table 7, read-out: IC50 (CgDHFR).
Where [7] appears, read: Inact: not active at 2 mM (~600 μg/mL).

Sequence of ChDHFR-TS (Q27552 1-521): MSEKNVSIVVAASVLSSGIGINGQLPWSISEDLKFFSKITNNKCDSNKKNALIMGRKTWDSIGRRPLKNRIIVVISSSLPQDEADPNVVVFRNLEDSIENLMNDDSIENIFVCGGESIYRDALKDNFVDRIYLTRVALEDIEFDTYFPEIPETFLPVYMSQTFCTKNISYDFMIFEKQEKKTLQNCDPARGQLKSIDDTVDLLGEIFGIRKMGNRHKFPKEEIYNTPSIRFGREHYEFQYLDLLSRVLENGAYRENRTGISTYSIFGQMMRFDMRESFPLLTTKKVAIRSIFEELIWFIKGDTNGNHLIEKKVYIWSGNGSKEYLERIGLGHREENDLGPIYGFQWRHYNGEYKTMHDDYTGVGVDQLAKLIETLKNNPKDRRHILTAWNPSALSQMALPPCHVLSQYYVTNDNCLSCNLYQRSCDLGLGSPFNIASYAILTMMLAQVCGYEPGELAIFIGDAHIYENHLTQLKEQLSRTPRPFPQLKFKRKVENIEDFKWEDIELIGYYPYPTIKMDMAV
Sequence of CgDHFR (Q6FPH0 1-217): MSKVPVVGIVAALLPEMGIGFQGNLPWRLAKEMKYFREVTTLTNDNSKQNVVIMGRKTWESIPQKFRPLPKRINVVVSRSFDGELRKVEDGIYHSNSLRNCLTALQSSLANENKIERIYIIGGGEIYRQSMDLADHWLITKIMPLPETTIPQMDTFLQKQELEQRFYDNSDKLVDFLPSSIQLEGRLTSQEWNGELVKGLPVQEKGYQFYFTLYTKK
Sequence of hDHFR (P00374 whole entry): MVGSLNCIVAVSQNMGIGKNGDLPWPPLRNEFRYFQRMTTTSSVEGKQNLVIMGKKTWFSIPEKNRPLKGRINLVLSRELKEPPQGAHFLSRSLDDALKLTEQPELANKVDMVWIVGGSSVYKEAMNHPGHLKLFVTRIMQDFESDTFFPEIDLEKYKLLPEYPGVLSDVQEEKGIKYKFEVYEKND

The term IC50 denotes the midpoint of a concentration-inhibition curve. Consider `COc1cc(-c2ccccc2C)cc(C(C)C#Cc2c(C)nc(N)nc2N)c1` (centres unmarked) [Compound D6M, 5-[3-(5-methoxy-6′-methylbiphenyl-3-yl)but-1-yn-1-yl]-6-methylpyrimidine-2,4-diamine], for which, in experiment [1] (setting [5]), the IC50 stood at 2.1 ± 0.3 nM.

For `COc1cc(C(C)C#Cc2c(C)nc(N)nc2N)cc(N2CCN(C)CC2)c1` (centres unmarked) [Compound 158], the IC50 in experiment [2] came out at 280 ± 17 nM; in experiment [4] (setting [6]) it was 30 ± 3 nM. The “MIC (Cg)” value in experiment [3] turned out to be 95 µg/mL (≈ 250 µM). In addition, the Selectivity in experiment [4] was 9 ± 1.

For the molecule `CCc1nc(N)nc(N)c1C#CC(C)c1cc(OC)cc(N2C[C@@H](C)O[C@@H](C)C2)c1` (mixture of isomers) [Compound 157], the IC50 was 200 ± 4.5 nM in experiment [2] and 38 ± 2 nM in experiment [4] (setting [6]). For the same molecule, the “MIC (Cg)” value in experiment [3] stood at 13 µg/mL (≈ 31.7 µM). For the same molecule, the Selectivity in experiment [4] was determined as 5.0 ± 1.

For the molecule `COc1cc(C(C)C#Cc2cnc(N)nc2N)cc(OC)c1OC` (centres unmarked) [Compound 2, 2,4-Diamino-5-(3-(3,4,5-trimethoxyphenyl)but-1-ynyl)pyrimidine], the “Antifungal activity MIC” value in experiment [3] (setting [7]) is given as “Inact”. The IC50 in experiment [4] (Table 3, read-out: CgDHFR IC50) came to 36 nM.

For the molecule `COc1cc(C(C#Cc2cnc(N)nc2N)OC)cc(OC)c1OC` (centres unmarked) [Compound 4, 5-[3-methoxy-3-(3,4,5-trimethoxyphenyl)prop-1-yn-1-yl]pyrimidine-2,4-diamine], the “Antifungal activity MIC” value in experiment [3] (setting [7]) was “Inact”. In experiment [4] (Table 3, read-out: CgDHFR IC50), the IC50 was 450 nM.

Usually MIC stands for the least concentration at which growth counts as inhibited. As to `COc1cc(C(O)C#Cc2cnc(N)nc2N)cc(OC)c1OC` (centres unmarked) [Compound 3, 3-(2,4-diaminopyrimidin-5-yl)-1-(3,4,5-trimethoxyphenyl)prop-2-yn-1-ol], the MIC in experiment [3] (Nakaseomyces glabratus, Inact: not active at 2 mM (~600 μg/mL), read-out: Antifungal activity MIC) stood at 328 µg/mL (≈ 993 µM). Moreover, the IC50 in experiment [4] (Table 3, read-out: CgDHFR IC50) amounted to 2700 nM.

Consider `COc1ccc(OC)c(CC#Cc2c(C)nc(N)nc2N)c1` [Compound 10], for which the “Antifungal activity MIC” value in experiment [3] (setting [7]) is 56 µg/mL. For the same molecule, the IC50 in experiment [4] (Table 3, read-out: CgDHFR IC50) stood at 32 nM.

As for `COc1cc(-c2ccccc2C)ccc1C(C)C#Cc1c(C)nc(N)nc1N` (centres unmarked) [Compound F2M, 5-[3-(3-methoxy-2′-methylbiphenyl-4-yl)but-1-yn-1-yl]-6-methylpyrimidine-2,4-diamine], the IC50 in experiment [1] (IC50 (ChDHFR), Table 4) stood at 36 ± 0.6 nM. Further, the “Selectivity Ratio (IC50 ChDHFR/IC50 hDHFR)” value in experiment [1] (Table 4) was determined as 77.

Turning to `COc1cc(-c2c(C)cccc2C)cc(C(C)C#Cc2c(C)nc(N)nc2N)c1` (centres unmarked) [Compound D26M, 5-[3-(5-methoxy-2′6′-dimethylbiphenyl-3-yl)but-1-yn-1-yl]-6-methylpyrimidine-2,4-diamine], the IC50 in experiment [1] (setting [5]) worked out at 2.1 ± 0.5 nM.

As for `COc1cc(C(O)C#Cc2c(C)nc(N)nc2N)cc(OC)c1OC` (centres unmarked) [Compound 7, 3-(2,4-diamino-6-methylpyrimidin-5-yl)-1-(3,4,5-trimethoxyphenyl)prop-2-yn-1-ol], the “Antifungal activity MIC” value in experiment [3] (setting [7]) is “Inact”. In experiment [4] (CgDHFR IC50, Table 3), this molecule had an IC50 of 39 nM.

As to `COc1cc(C(C#Cc2c(C)nc(N)nc2N)OC)cc(OC)c1OC` (centres unmarked) [Compound 8, 5-[3-methoxy-3-(3,4,5-trimethoxyphenyl)prop-1-yn-1-yl]-6-methylpyrimidine-2,4-diamine], in experiment [3] (setting [7]), the “Antifungal activity MIC” value is reported as “Inact”. This molecule came in with an IC50 in experiment [4] (CgDHFR IC50, Table 3) of 30 nM.

Regarding `COc1cc(-c2c(C(C)C)cccc2C(C)C)cc(C(C)C#Cc2c(C)nc(N)nc2N)c1` (centres unmarked) [Compound D26I, 5-[3-(5-methoxy-2′6′-diisopropylbiphenyl-3-yl)but-1-yn-1-yl]-6-methylpyrimidine-2,4-diamine], in experiment [1] (setting [5]), the IC50 was 10 nM.

Regarding `COc1ccc(OC)c(CC#Cc2cnc(N)nc2N)c1` [Compound 9], the “Antifungal activity MIC” value in experiment [3] (setting [7]) is 72 µg/mL. The IC50 in experiment [4] (Table 3, read-out: CgDHFR IC50) is 21 nM; in experiment [4] (read-out: IC50 against CgDHFR), ≤ 25 nM.

`CCc1nc(N)nc(N)c1C#CCc1cc(OC)ccc1OC` [Compound 11]: the “Antifungal activity MIC” value in experiment [3] (setting [7]) was 78 µg/mL. Further, the IC50 is 8.2 nM in experiment [4] (Table 3, read-out: CgDHFR IC50) and ≤ 25 nM in experiment [4] (read-out: IC50 against CgDHFR).

In the case of `CN(Cc1cnc2nc(N)nc(N)c2n1)c1ccc(C(=O)N[C@@H](CCC(=O)O)C(=O)O)cc1` [methotrexate, (S)-2-(4-(((2,4-diaminopteridin-6-yl)methyl)methylamino)benzamido)pentanedioic acid, reference compound], half-maximal inhibition in experiment [1] (IC50 against ChDHFR) (IC50) required 23 nM.
